One experiment concerns CXCR4. Kind of experiment: CXCR4 surface expression, flow cytometry. The experiment is classed as cell-based, human. To be noted: PBMC and TZM-bl cells; E2 peptides 25 µM, SDF-1α 1 µg/ml; 6 hr; FACS; RTCN vs mock; average of two independent experiments each in triplicate. On the procedure: (§1) PHA/IL-2-stimulated PBMC or TZM-bl cells were incubated with E2 peptides (25 µM), phorbol 12-myristate 13-acetate (PMA; 40 ng/ml), SDF-1α (1 µg/ml) or RANTES (50 nM) for 6 hr. CD4, CXCR4 and CCR5 surface expression was analyzed by using standard FACS staining protocols. Cells were washed with PBS and incubated for 30 min at 4°C with PE-labeled antibodies (CD4 clone SK3, CXCR4 clone 12G5, and CCR5 clone 2D7, BD Biosciences, Germany). Subsequently, washed cells were resuspended in PBS and analyzed with a FACSCalibur™ flow cytometer (BD Biosciences, Germany).
(§2) The non-HIV-1-inhibitory peptide P28 derived from the C-terminal part of E2 (residue 271 to 290), served as a negative control.
(§3) CD4, CXCR4 and CCR5 expression on PBMC (A) and TZM-bl cells (B) after preincubation with E2 peptides were determined by flow cytometry analysis. […] Percentages illustrate the ratio-to-cell-negative (RTCN) values that were calculated from the percentage of positive cells and the fluorescence intensity of peptide-incubated cells compared to mock-incubated cells. Columns show average values ±SD of two independent experiments each performed in triplicate. *: p<0.05; **: p<0.01 (mock- vs. inhibitor-incubated cells).
(In general: In flow cytometry, cells or beads pass a laser one at a time.)

The next experiment deals with F240. Kind of experiment: Unspecific binding of E2 peptides to antibody F240. To be noted: data not shown.
The test system of a further experiment is CD4. As to the kind of experiment: CD4 surface expression, flow cytometry. Type of experiment: cell-based, human. To be noted: PBMC and TZM-bl cells; E2 peptides 25 µM, PMA 40 ng/ml; 6 hr; FACS; RTCN vs mock; average of two independent experiments each in triplicate. The method, then:
as §1, §2, §3

In experiment [1] the test system is HIV-1 NL4-3 / TZM-bl cells. As to the kind of experiment: HIV-1 virion-based (BlaM-Vpr) virus-cell fusion assay. To be noted: standard (pre-CD4 binding) and TAS (post-CD4 binding, 23°C 1 h then 37°C 2 hr); E2 peptides 20 µM, AMD-3100 10 µM, 2F5 0.5 µg/ml, b12 and B4 0.3 µg/ml; five independent experiments each in triplicate.
Protocol: HIV-1 virions containing the BlaM-Vpr chimera were produced as previously described [33]. Briefly, 293T cells were co-transfected with pNL4-3 proviral DNA, pCMV-BlaM-Vpr, and pAdVAntage vectors. After 2 days of cultivation, the virus-containing supernatant was centrifuged for 10 min at 300×g to remove cellular debris. The HIV-1 virion-containing supernatant was overlaid onto a 20% sucrose cushion and ultracentrifuged at 35000×g at 4°C for 90 min. The resulting pellet was resuspended in medium and aliquots were frozen at −80°C until usage.
The virion-based fusion assay was performed essentially as described elsewhere [41]. Briefly, 5×10^4 TZM-bl cells were infected with sucrose-purified HIV-1 NL4-3 virions containing BlaM-Vpr (5 ng p24-Gag per approach). Under temperature-arrested state (TAS) conditions, binding of the HI virions to target cells was allowed at low temperature via spinning inoculation, for which virions were added to cells and centrifuged at 2095×g, 4°C for 30 min. […] BlaM activity was quantified using a fluorescence plate reader. The extent of virus-cell fusion was determined from the ratio of blue (460 nm) and green (510 nm) emission upon exciting the cells at 405 nm.
To find out whether early or late steps of HIV-1 entry are affected by the E2 peptides, the E2 peptide activity was determined before and after gp120/CD4 engagement using the Vpr-β-lactamase (Vpr-BlaM) enzyme-based virus-cell fusion assay under standard (pre-CD4 binding) and temperature-arrested state (TAS; post-CD4 binding) conditions, respectively.
The HIV-inhibitory activity of known HIV-1 entry inhibitors or respective E2 peptides was determined using a virus-cell fusion assay under standard (respective inhibitors were added simultaneously to HIV NL4-3BlaM-Vpr inoculum: pre-CD4 binding) or under TAS (temperature-arrested state) conditions (respective inhibitors were added at low temperature of 23°C for 1 h after spin-inoculation [4°C] and removal of unbound HIV-1 particles: post-CD4 binding). […] Percentages were calculated in relation to mock-treated cells. […]
For experiment [2], the target named is E2_340-Fc / HIV-1 gp41MN interaction (Human immunodeficiency virus type 1 group M subtype B, UniProt P05877). Type of experiment: binding. To be noted: ELISA, immobilized gp41MN, E2_340-Fc constant (5 µg/ml), increasing peptide; three independent experiments each in duplicate. (An ELISA detects its analyte on a solid surface through an enzyme-linked reagent.)
Protocol: Flat-bottom, 96-well Microtest ELISA plates (Sarstedt, Germany) were coated overnight at 4°C with recombinant HIV-1 gp120 (0.5 µg/ml), gp41 (0.22 µg/ml) proteins, or with streptavidin (4 µg/ml) in coating buffer (0.1 M NaHCO3, 0.1 M Na2CO3, pH 9.87). Nonspecific binding was blocked (blocking buffer: 1% BSA, 0.1% Tween-20 in phosphate buffer, pH 7.2) for 1 h at room temperature, followed by washing steps (wash buffer: 0.1% Tween in phosphate buffer, pH 7.2). […] All plates were then incubated with recombinant E2_340-Fc or Fc protein in serial dilutions in sample buffer (phosphate buffer, pH 7.2) for 3 hr at room temperature. To perform the competitive ELISAs, the recombinant E2_340-Fc protein was adjusted at 5 µg/ml and the monoclonal gp41 antibodies (246-D, F240, T32, D50, 2F5, 4E10, Chessie 8 [all: NIH AIDS Research and Reference Reagent Program], and 5F3 [Polymun, Austria]) at 100 µM. After washing procedure, the plates were incubated for 1 h with polyclonal rabbit anti-human IgG peroxidase antibody (Dako, Germany) 1∶6000 in sample buffer and washed. Plates were developed with TMB peroxidase substrate solution (KPL, USA), or with OPD/H2O2 solution in the dark. Absorbances (ODs) were read at 450 or 492 nm, respectively, using a multi-channel photometer (ELISA-Reader AxSYM, Abbott Laboratory, USA).
(C) E2 peptides with increasing amounts were added to recombinant E2_340-Fc protein (at constant concentration) and then transferred to immobilized recombinant gp41MN.
Competitive binding of E2 and gp120 peptides (N35, N35s) with recombinant E2_340-Fc protein to immobilized recombinant gp41MN. Simultaneously to E2_340-Fc incubation peptides of E2 or gp120 were added with increasing amounts.

The subject of the next experiment is T32. Kind of experiment: Unspecific binding of E2 peptides to antibody T32. To be noted: data not shown.
Experiment [3] concerns 6-helix bundle (N36/C34-biotin). As to the kind of experiment: Inhibition of 6-HB formation, ELISA. Type of experiment: binding, HIV-1. To be noted: mAb NC-1 capture, N36 0.25 µM, C34-biotin 0.25 µM, graded peptide, 30 min 37°C, triplicate. On the procedure: Briefly, 96-well polystyrene plates were coated with the 6-HB-specific monoclonal antibody, NC-1 IgG, (described by) (2 µg/ml in 0.1 M Tris, pH 8.8), and then blocked with 2% non-fat milk. N36 (0.25 µM), the tested peptides and C34 as control were added at graded concentrations into the wells. After incubation for 30 min at 37°C, C34-biotin (0.25 µM) was added, followed by incubation for 45 min at 37°C and washing with wash buffer (PBS containing 0.05% Tween-20) six times. Streptavidin-labeled horseradish peroxidase (Invitrogen, Grand Island, NY) and the substrate 3,3′,5,5′-tetramethylbenzidine (Sigma, St. Louis, MO) were added sequentially. Absorbance at 450 nm (OD450) was measured. The percent inhibition of 6-HB formation by the peptides was calculated as described before.
Figure 5 E2-derived peptides bind to the disulfide loop of gp41. (A) Illustration of gp41 variants (strains IIIB, MN) and peptides (N36, C34) used in ELISA as well as the binding epitopes of different monoclonal gp41 antibodies. Gp41 consists of the N-terminal fusion peptide (FP), the N- and C-heptad repeats (NHR, CHR) that are connected by the disulfide loop region (C-C loop), the membrane proximal external region (MPER), the α-helical transmembrane-spanning domain (TM), and the cytoplasmic tail (CP). […] Each sample was tested in triplicate. This experiment was repeated twice and similar results were obtained. […]

Sequence of E2_340-Fc / HIV-1 gp41MN interaction (P05877 514-856): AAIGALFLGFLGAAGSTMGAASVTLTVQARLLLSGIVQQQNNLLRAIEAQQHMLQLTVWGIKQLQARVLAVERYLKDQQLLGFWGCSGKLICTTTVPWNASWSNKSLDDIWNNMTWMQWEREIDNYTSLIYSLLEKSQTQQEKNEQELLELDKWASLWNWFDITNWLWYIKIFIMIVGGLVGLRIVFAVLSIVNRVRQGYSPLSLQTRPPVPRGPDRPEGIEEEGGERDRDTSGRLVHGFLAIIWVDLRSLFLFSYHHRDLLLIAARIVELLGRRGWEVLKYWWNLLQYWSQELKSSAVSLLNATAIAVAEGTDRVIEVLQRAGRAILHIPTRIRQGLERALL

Regarding “Ac-WDRGNVTLLCDCPNGPWVWV [P4-7, 20 mer peptide presenting amino acids 37 to 56 of the GBV-C E2 protein]”, the CXCR4 surface presentation result in the experiment on CXCR4 was “no relevant effect on HIV-1 receptor presentation”. The “unspecific binding to antibody F240” value in the experiment on F240 is on record as “No unspecific binding”. Besides, in the experiment on CD4, the CD4 surface presentation result is listed as “no relevant effect on HIV-1 receptor presentation”. In experiment [1], the “inhibition of virus-cell fusion, standard versus TAS conditions” value was “full activity under both conditions”. In experiment [2], the “competition with E2_340-Fc for gp41 binding” value was “abrogated the protein-protein interaction between HIV-1 gp41 and GBV-C E2 in a dose-dependent manner”. The “unspecific binding to antibody T32” value with T32 is “No unspecific binding”. Besides, in experiment [3], the “inhibition of 6-HB formation” value is reported as “Neither P4-7 nor P6-2 was able to interfere with the formation of 6-HB”.

Take `CC(=O)N[C@@H](CC(C)C)C(=O)N[C@@H](CS)C(=O)N[C@@H](CC(=O)O)C(=O)N[C@@H](CS)C(=O)N1CCC[C@H]1C(=O)N[C@@H](CC(N)=O)C(=O)NCC(=O)N1CCC[C@H]1C(=O)N[C@@H](Cc1c[nH]c2ccccc12)C(=O)N[C@H](C(=O)N[C@@H](Cc1c[nH]c2ccccc12)C(=O)N[C@H](C(=O)N1CCC[C@H]1C(=O)N[C@@H](C)C(=O)N[C@@H](Cc1ccccc1)C(=O)N[C@@H](CS)C(=O)N[C@@H](CCC(N)=O)C(=O)N[C@@H](C)C(=O)N[C@H](C(=O)NCC(=O)O)C(C)C)C(C)C)C(C)C` [P6-2]: in the experiment with CXCR4, the CXCR4 surface presentation result is “no relevant effect on HIV-1 receptor presentation”. In addition, in the experiment on F240, the “unspecific binding to antibody F240” value is “No unspecific binding”. In the experiment on CD4, the CD4 surface presentation entry is recorded as “no relevant effect on HIV-1 receptor presentation”. For the same compound, the “inhibition of virus-cell fusion, standard versus TAS conditions” value in experiment [1] was “full activity under both conditions”. Moreover, the “competition with E2_340-Fc for gp41 binding” value in experiment [2] is “abrogated the protein-protein interaction between HIV-1 gp41 and GBV-C E2 in a dose-dependent manner”. For the same compound, in the experiment with T32, the “unspecific binding to antibody T32” value is listed as “No unspecific binding”. Moreover, in experiment [3], the “inhibition of 6-HB formation” value is listed as “Neither P4-7 nor P6-2 was able to interfere with the formation of 6-HB”.

The values are drawn from article PMC3551756, “HIV-1 Fusion Is Blocked through Binding of GB Virus C E2D Peptides to the HIV-1 gp41 Disulfide Loop” (PLoS ONE, 2013).
